As a reminder, the Km is the concentration of substrate that gives half-maximal velocity.

Experimental findings from publication PMC5915715, “Inhibitors of both the N-methyl lysyl- and arginyl-demethylase activities of the JmjC oxygenases” (Philosophical Transactions of the Royal Society B: …, 2018) are described below.

The target of series [1] is T1, KDM4E (JMJD2E); KDM4E(1-377) (Homo sapiens, UniProt B2RXH2).
T1 construct: residues 1-377 (JmjN and JmjC domains); recombinant, E. coli BL21(DE3)-R3 with pRARE2
T1 sequence (B2RXH2 1-377): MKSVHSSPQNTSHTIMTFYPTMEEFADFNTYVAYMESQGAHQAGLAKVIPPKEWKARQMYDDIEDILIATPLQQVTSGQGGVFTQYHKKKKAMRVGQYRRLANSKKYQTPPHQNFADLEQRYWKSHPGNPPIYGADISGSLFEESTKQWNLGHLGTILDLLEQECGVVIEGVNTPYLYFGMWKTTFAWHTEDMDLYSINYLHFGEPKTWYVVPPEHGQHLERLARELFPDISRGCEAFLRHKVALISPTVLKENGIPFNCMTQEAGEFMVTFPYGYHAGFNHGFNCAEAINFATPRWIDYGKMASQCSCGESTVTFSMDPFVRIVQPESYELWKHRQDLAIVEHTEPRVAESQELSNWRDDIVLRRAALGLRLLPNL
Put plainly: RapidFire MS demethylation assay. The settings on record: read-out: pIC50 ± s.e.m. / inhibition of H3(1-15)K9me2 demethylation (converted). Format: biochemical.

Series [2] addresses T1, KDM4E (JMJD2E); KDM4E(1-377). The experiment in a line: RapidFire MS demethylation assay. Format: biochemical. The settings on record: KDM activity: 5 µM H3(1-15)K9me2, 0.25 µM enzyme, 10 µM Fe(II), 100 µM ascorbate, 10 µM 2OG, 50 mM HEPES pH 7.5, 15 min; iron chelator, may act by chelating iron in solution; unreliable (printed s.e.m). An excerpt: RapidFire MS demethylation assay on KDM4E (JMJD2E); KDM4E(1-377)

Substrate in series [3]: O=C(O)CCC(=O)C(=O)O
Put plainly: steady-state kinetics (supplement). Format: biochemical, Homo sapiens. The note with it: 50 mM HEPES pH 7.5, Fe(II), ascorbate, approximate value, peptide substrate not stated.

In the case of `CC(=O)N(O)CCCCCNC(=O)CCC(=O)N(O)CCCCCNC(=O)CCC(=O)N(O)CCCCCN` [deferoxamine], the IC50 in series [1] is 2.4 µM.

For the molecule `CCN(CCN(C)C)C(=O)CNCc1cc(C(=O)O)ccn1` [KDM5-C49], in series [1], the IC50 was 2.09 µM.

`O=C(O)CN(CCN(CC(=O)O)CC(=O)O)CC(=O)O` [EDTA]: the “pIC50 ± s.e.m. / inhibition of H3(1-15)K9me2 demethylation” value in series [2] is 5.82 ± 6.53 -log10(M).

With `O=C(O)CC[C@@H](O)C(=O)O` [D-2HG], the IC50 in series [1] is 11.5 µM.

Regarding `O=C(O)CCC(=O)O` [succinate], the IC50 in series [1] was 148 µM.

As to `CC(C)c1c(-c2ccccc2)[nH]c2c(C#N)cnn2c1=O` [CPI-455], in series [1], the IC50 is 4.47 µM.

Regarding `O=C(O)/C=C/C(=O)O` [fumarate], the IC50 in series [1] is 1950 µM.

Take `CCN(CCN(C)C)C(=O)CNCc1cc(C(N)=O)ccn1` [KDOAM25]: in series [1], the IC50 is 182 µM.

In the case of `O=C(O)CC[C@H](O)C(=O)O` [L-2HG], the IC50 in series [1] is 13.5 µM.

For `CN(C)CCCNC(=O)c1ccc(-c2cc(O)c3ncccc3c2)cc1` [ML324], the IC50 in series [1] was 4.79 µM.

B1: KDM4E (JMJD2E); KDM4E(1-377) (Homo sapiens) (protein)
chain: MKSVHSSPQNTSHTIMTFYPTMEEFADFNTYVAYMESQGAHQAGLAKVIPPKEWKARQMYDDIEDILIATPLQQVTSGQGGVFTQYHKKKKAMRVGQYRRLANSKKYQTPPHQNFADLEQRYWKSHPGNPPIYGADISGSLFEESTKQWNLGHLGTILDLLEQECGVVIEGVNTPYLYFGMWKTTFAWHTEDMDLYSINYLHFGEPKTWYVVPPEHGQHLERLARELFPDISRGCEAFLRHKVALISPTVLKENGIPFNCMTQEAGEFMVTFPYGYHAGFNHGFNCAEAINFATPRWIDYGKMASQCSCGESTVTFSMDPFVRIVQPESYELWKHRQDLAIVEHTEPRVAESQELSNWRDDIVLRRAALGLRLLPNL
notes: residues 1-377 (JmjN and JmjC domains); recombinant, E. coli BL21(DE3)-R3 with pRARE2
In the case of B1, in series [3], the Km is 10 µM.
